Results reported in ChEMBL document CHEMBL1201862, “PubChem BioAssay data set” (2004).
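Interpolation was linear, between the two tested concentrations surrounding the appropriate level; five concentrations were tested over 48 hours in 96-well plates. At the GI50, growth is halved.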 Active and inactive are the calls of the source. Rule as the data show it: active = GI50 up to about 1.1 µM and inactive = higher.

Legend:
Assay in all cases: NCI tumour cell line growth inhibition, 48 h
MDA-MB-435 = tested on: MDA-MB-435
UO-31 = tested on: UO-31
SF-295 = tested on: SF-295
LOX IMVI = tested on: LOX IMVI
HCT-116 = tested on: HCT-116
SK-OV-3 = tested on: SK-OV-3
T47D = tested on: T47D
SF-539 = tested on: SF-539
MCF7 = tested on: MCF7
SN12C = tested on: SN12C
SW-620 = tested on: SW-620
OVCAR-8 = tested on: OVCAR-8
HL-60 = tested on: HL-60
HCC 2998 = tested on: HCC 2998
SF-268 = tested on: SF-268
CCRF-CEM = tested on: CCRF-CEM
MDA-MB-231 = tested on: MDA-MB-231
MDA-N = tested on: MDA-N
SR = tested on: SR
K562 = tested on: K562
MOLT-4 = tested on: MOLT-4
NCI-H226 = tested on: NCI-H226
ACHN = tested on: ACHN
HT-29 = tested on: HT-29
KM12 = tested on: KM12
Malme-3M = tested on: Malme-3M
HOP-92 = tested on: HOP-92
SK-MEL-5 = tested on: SK-MEL-5
EKVX = tested on: EKVX
IGROV-1 = tested on: IGROV-1
A498 = tested on: A498
RPMI-8226 = tested on: RPMI-8226
COLO 205 = tested on: COLO 205
U-251 = tested on: U-251
UACC-257 = tested on: UACC-257
RXF 393 = tested on: RXF 393
OVCAR-3 = tested on: OVCAR-3
SNB-19 = tested on: SNB-19
NCI-H522 = tested on: NCI-H522
DU-145 = tested on: DU-145
PC-3 = tested on: PC-3
TK-10 = tested on: TK-10
786-0 = tested on: 786-0
SK-MEL-2 = tested on: SK-MEL-2
NCI-H23 = tested on: NCI-H23
HCT-15 = tested on: HCT-15
NCI/ADR-RES = tested on: NCI/ADR-RES
HOP-62 = tested on: HOP-62
BT-549 = tested on: BT-549
A549 = tested on: A549
OVCAR-4 = tested on: OVCAR-4
SNB-75 = tested on: SNB-75
UACC-62 = tested on: UACC-62
CAKI-1 = tested on: CAKI-1
OVCAR-5 = tested on: OVCAR-5
M14 = tested on: M14
SK-MEL-28 = tested on: SK-MEL-28
NCI-H460 = tested on: NCI-H460
Hs-578T = tested on: Hs-578T

Measured: GI50

N#Cc1c(C#N)c(-c2ccco2)n(-c2ccccc2)c1N
inactive: MDA-MB-435 > 100 µM | UO-31 > 100 µM | SF-295 > 100 µM | LOX IMVI > 100 µM | HCT-116 > 100 µM | SK-OV-3 94.4 µM | T47D 11.7 µM | SF-539 38.5 µM | MCF7 5.94 µM | SN12C > 100 µM | SW-620 > 100 µM | OVCAR-8 22.6 µM | HL-60 > 100 µM | HCC 2998 > 100 µM | SF-268 51.9 µM | CCRF-CEM > 100 µM | MDA-MB-231 31.7 µM | MDA-N > 100 µM | SR 98.2 µM | K562 > 100 µM | MOLT-4 > 100 µM | NCI-H226 29.5 µM | ACHN > 100 µM | HT-29 > 100 µM | KM12 > 100 µM | Malme-3M > 100 µM | HOP-92 49.8 µM | SK-MEL-5 > 100 µM | EKVX 45 µM | IGROV-1 > 100 µM | A498 > 100 µM | RPMI-8226 > 100 µM | COLO 205 > 100 µM | U-251 35.5 µM | UACC-257 > 100 µM | RXF 393 > 100 µM | OVCAR-3 > 100 µM | SNB-19 39.2 µM | NCI-H522 > 100 µM | DU-145 > 100 µM | PC-3 > 100 µM | TK-10 > 100 µM | 786-0 83.4 µM | SK-MEL-2 > 100 µM | NCI-H23 > 100 µM | NCI/ADR-RES 31.8 µM | HOP-62 > 100 µM | BT-549 40.1 µM | A549 59.2 µM | OVCAR-4 > 100 µM | SNB-75 26.5 µM | UACC-62 > 100 µM | CAKI-1 > 100 µM | OVCAR-5 > 100 µM | M14 > 100 µM
> 100 µM: HCT-15

CC(=O)OCC1=C(C)C(OC(=O)C(OC(C)=O)[C@@H](NC(=O)c2ccccc2)c2ccccc2)CCC1(C)C (stereo not given in full)
inactive: MDA-MB-435 > 100 µM | UO-31 > 100 µM | SF-295 > 100 µM | LOX IMVI > 100 µM | HCT-116 > 100 µM | SK-OV-3 > 100 µM | T47D > 100 µM | SF-539 > 100 µM | MCF7 > 100 µM | SN12C > 100 µM | SW-620 > 100 µM | OVCAR-8 > 100 µM | HL-60 > 100 µM | HCC 2998 > 100 µM | SF-268 > 100 µM | CCRF-CEM > 100 µM | MDA-MB-231 > 100 µM | MDA-N > 100 µM | SR > 100 µM | K562 > 100 µM | MOLT-4 > 100 µM | NCI-H226 > 100 µM | ACHN > 100 µM | HT-29 > 100 µM | KM12 > 100 µM | Malme-3M > 100 µM | SK-MEL-5 > 100 µM | EKVX > 100 µM | IGROV-1 > 100 µM | A498 > 100 µM | RPMI-8226 > 100 µM | COLO 205 > 100 µM | U-251 > 100 µM | SK-MEL-28 > 100 µM | NCI-H460 > 100 µM | UACC-257 > 100 µM | RXF 393 > 100 µM | OVCAR-3 > 100 µM | SNB-19 > 100 µM | DU-145 > 100 µM | TK-10 > 100 µM | 786-0 > 100 µM | NCI-H23 > 100 µM | NCI/ADR-RES > 100 µM | HOP-62 > 100 µM | BT-549 > 100 µM | A549 > 100 µM | OVCAR-4 > 100 µM | SNB-75 9.86 µM | UACC-62 > 100 µM | CAKI-1 > 100 µM | OVCAR-5 > 100 µM
> 100 µM: HCT-15

C(=N\c1ccc(-c2nc3ccccc3s2)cc1)/c1ccco1
inactive: MDA-MB-435 64.3 µM | UO-31 62.4 µM | SF-295 18.9 µM | LOX IMVI 54.1 µM | HCT-116 82 µM | SK-OV-3 83.8 µM | T47D 41.6 µM | SF-539 > 100 µM | SN12C 75.2 µM | Hs-578T > 100 µM | SW-620 > 100 µM | OVCAR-8 64.9 µM | HCC 2998 43.5 µM | SF-268 48.2 µM | CCRF-CEM 37.6 µM | MDA-N 72.9 µM | SR 50.2 µM | K562 41.3 µM | MOLT-4 29 µM | NCI-H226 56.4 µM | ACHN 44.8 µM | HT-29 70 µM | KM12 38 µM | Malme-3M > 100 µM | HOP-92 39.5 µM | SK-MEL-5 33.5 µM | EKVX 37.2 µM | IGROV-1 58.1 µM | A498 27 µM | RPMI-8226 41.6 µM | COLO 205 87.3 µM | U-251 47.6 µM | SK-MEL-28 > 100 µM | NCI-H460 40.3 µM | UACC-257 43.8 µM | RXF 393 55.7 µM | OVCAR-3 43.6 µM | SNB-19 > 100 µM | NCI-H522 44.5 µM | DU-145 > 100 µM | PC-3 32.5 µM | TK-10 2 µM | 786-0 83 µM | SK-MEL-2 60.3 µM | NCI-H23 70.6 µM | NCI/ADR-RES 60.8 µM | HOP-62 30.4 µM | BT-549 83.4 µM | A549 56.6 µM | OVCAR-4 59.6 µM | SNB-75 85.5 µM | UACC-62 54.2 µM | CAKI-1 49.1 µM | OVCAR-5 > 100 µM | M14 93.5 µM
51.2 µM: HCT-15
